The record followed here is patent US20110105748A1, “Novel beta-phenyl-alpha-oxysubstituted propionic derivatives: process for its preparation and their use in the preparation of pharmaceutically important compounds” (priority 2001, published 2011).

Usually melting point stands for the temperature, or range, at which the solid turns liquid. In the case of `CCOC(=O)[C@H](Cc1ccc(N)cc1)OCC` [Example 6, (S)-Ethyl 2-ethoxy-3-(4-aminophenyl)propionate], the melting point lay within 74 to 76 °C.
